One block for each molecule: values may come before it.
Experiments:
KDM1A = test: Chemoproteomic competition pulldown assay (co-competed CoREST partner); assay type: binding
Protocol: (§1) To identify proteins directly bound by lipoic acid, we employed a chemoproteomic competition assay. Briefly, (R/S)-LA was immobilized on sepharose beads via an amidation reaction to form an affinity matrix (abbreviated as iL; Fig. 1a). This affinity matrix can be incubated with cell lysate to pull down potential LA or LM target proteins and identify these targets via bottom-up proteomics. In a competition assay, free LA or LM were incubated with lysate at different concentrations before pulling down and quantifying target proteins. […] (Fig. 1b, see “Methods” for details). […] The lysate buffer used in this assay contains 1 mM DTT to mimic the intracellular reductive milieu and to reduce lipoic acid and LM. […] Additional competition assays performed in lung adenocarcinoma cell A549 lysate also identified HDAC1, HDAC2, and HDAC6 as targets (Supplementary Fig. 1b). Amongst the three cell lines tested, HDACs were the only confidently identified targets across the 1500–3000 proteins quantified in these assays. […] We validated the results by analogous pulldown competition assays using two other affinity matrices prepared via the immobilization of either the HDAC inhibitor Quisinostat (iQ) and an analog of the class IIa HDAC inhibitor Bürli’s 31[14] (iC)[12]. We have previously shown that these affinity matrices specifically bind to the active sites of HDACs and have used them for HDACi selectivity profiling. Indeed, binding of (R/S)-LA and (R/S)-LM to HDAC1, HDAC2, HDAC3, HDAC6, and, to a lesser extent, HDAC8 was confirmed in these assays (Supplementary Fig. 1c, d). No binding to class IIa HDACs or the recently discovered common HDAC inhibitor off-target MBLAC2 was observed (Supplementary Fig. 1e)[12]. […] This observation might reflect electrostatic repulsion between the HDAC10 active site gate-keeper glutamic acid residues[15],[16] and the terminal carboxylic acid of LA.
(§2) To assess the degree of protein depletion from lysates by the affinity matrix, a second pulldown (PDPD) with fresh beads was performed using the unbound protein fraction from the vehicle control flow through. The beads were washed (1 × 1 mL of lysis buffer without inhibitors and only 0.4% Igepal, 2 × 2 mL of lysis buffer without inhibitors and only 0.2% Igepal), and captured proteins were denatured with 8 M urea buffer, alkylated with 55 mM chloroacetamide and digested with Trypsin according to standard procedures. The resulting peptides were desalted on a C18 filter plate (Sep-Pak® tC18 µElution Plate, Waters), vacuum dried, and stored at −20 °C until LC–MSMS measurement.
(§3) For the competition assays, relative binding was calculated based on the protein intensity ratio to the DMSO control for every single inhibitor concentration. EC50 values were derived from a four-parameter log-logistic regression with variable slope (constrain: bottom > 0). The obtained EC50 values were multiplied with a protein-dependent correction factor (cf), resulting in the apparent Kd value (Kd^app). The correction factor is determined by calculating the ratio of the protein intensity of two consecutive pulldowns of the vehicle control sample[13]. Targets of the inhibitors were annotated manually according to published procedures[12],[46],[47]. […] Additionally, the number of unique peptides and MSMS counts per condition were taken into account. Positive target binding across several independent experiments performed with different cell lysates further substantiated our confidence for a true positive drug-target binding event.

HMG20A = test: as above; assay type: binding
Protocol: as §1, §2, §3

[1] = biological target: T1, HDAC6-catalytic domain 2 (HDAC6CD2) (Homo sapiens, UniProt Q9UBN7); test: NanoBRET intracellular target engagement assay; assay type: cell-based
T1 construct: HDAC6-catalytic domain 2 (HDAC6CD2); expressed in transfected cells
T1 sequence (Q9UBN7 482-800 limits assumed): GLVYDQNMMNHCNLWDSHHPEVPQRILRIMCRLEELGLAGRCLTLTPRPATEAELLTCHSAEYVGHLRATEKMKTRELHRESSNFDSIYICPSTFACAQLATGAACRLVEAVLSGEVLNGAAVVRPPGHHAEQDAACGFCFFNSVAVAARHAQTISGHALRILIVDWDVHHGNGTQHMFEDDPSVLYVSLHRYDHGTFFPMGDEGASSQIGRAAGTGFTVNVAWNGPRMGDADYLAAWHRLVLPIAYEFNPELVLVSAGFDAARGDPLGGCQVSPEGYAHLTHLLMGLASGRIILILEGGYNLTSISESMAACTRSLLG
Protocol: For the production of transfected HeLa mono-clones stably expressing HDAC-nanoBRET fusion proteins of HDAC10 and HDAC6-catalytic domain 2 (HDAC6CD2), plasmids expressing a fusion of HDAC10 with nanoluciferase were obtained from Promega (N2170). HeLa cells (0.75 × 10^6) were seeded in a 6 cm dish and were transfected with a mix of 10 μg plasmid and 3 μL Fugene in 200 μL OptiMEM after 24 h. The intracellular target engagement assay on HDAC10 and HDAC6CD2 was performed using the NanoBRET™ Target Engagement Intracellular HDAC Assay (Promega N2081 and N2090) as described by the kit manufacturer in a 96-well plate (Corning 3600) format with 2 × 10^4 cells per well and a tracer concentration of 0.3 μM. Inhibitors were dosed with a D300e Digital Dispenser (Tecan). DMSO concentrations were normalized to 0.5% for all wells. After dosing, assay plates were shaken at 800 rpm and incubated at 37 °C for 2 h followed by measurement of 450 nm and 650 nm luminescence (80 nm bandwidth) at room temperature with a CLARIOstar (BMG Labtech) plate reader 2 min after NanoLuc substrate addition.

[2] = iL, A549 lysate, log10 M -4.52288
[3] = iL, A549 lysate, log10 M -5.52288
[4] = iL, A549 lysate, log10 M -6.52288
[5] = iL, A549 lysate, log10 M -7.52288
[6] = iL, A549 lysate, log10 M -8.52288
[7] = iQ, SW620 lysate, log10 M -3.52288
[8] = iQ, SW620 lysate, log10 M -4.52288
[9] = iQ, SW620 lysate, log10 M -5.52288
[10] = iQ, SW620 lysate, log10 M -6.52288
[11] = iL, MV4-11 lysate, log10 M -3.52288
[12] = iL, MV4-11 lysate, log10 M -4.52288
[13] = iL, MV4-11 lysate, log10 M -5.52288
[14] = iL, MV4-11 lysate, log10 M -6.52288

Compound: O=C(O)CCCCC1CCSS1 (racemic) [(R/S)-LA, (R/S)-lipoic acid]
relative binding vs DMSO (KDM1A; iL, A549 lysate, log10 M -4): 0.08234 | relative binding vs DMSO (KDM1A; [2]): 0.1175 | relative binding vs DMSO (KDM1A; iL, A549 lysate, log10 M -5): 0.1963 | relative binding vs DMSO (KDM1A; [3]): 0.3595 | relative binding vs DMSO (KDM1A; iL, A549 lysate, log10 M -6): 0.6514 | relative binding vs DMSO (KDM1A; [4]): 1.056 | relative binding vs DMSO (KDM1A; [5]): 0.9439 | relative binding vs DMSO (KDM1A; iL, A549 lysate, log10 M -8): 1.171 | relative binding vs DMSO (KDM1A; [6]): 1.264 | relative binding vs DMSO (KDM1A; iL, SW620 lysate, log10 M -3.52288): 0 | relative binding vs DMSO (KDM1A; iL, SW620 lysate, log10 M -4): 0 | relative binding vs DMSO (KDM1A; iL, SW620 lysate, log10 M -4.52288): 0 | relative binding vs DMSO (KDM1A; iL, SW620 lysate, log10 M -5): 0.08571 | relative binding vs DMSO (KDM1A; iL, SW620 lysate, log10 M -5.52288): 0.9092 | relative binding vs DMSO (KDM1A; iL, SW620 lysate, log10 M -6): 1.31 | relative binding vs DMSO (KDM1A; iL, SW620 lysate, log10 M -6.52288): 1.608 | relative binding vs DMSO (KDM1A; iL, SW620 lysate, log10 M -7): 1.68 | relative binding vs DMSO (KDM1A; [7]): 0.1418 | relative binding vs DMSO (KDM1A; iQ, SW620 lysate, log10 M -4): 0.1346 | relative binding vs DMSO (KDM1A; [8]): 0.3513 | relative binding vs DMSO (KDM1A; iQ, SW620 lysate, log10 M -5): 0.5517 | relative binding vs DMSO (KDM1A; [9]): 0.6829 | relative binding vs DMSO (KDM1A; iQ, SW620 lysate, log10 M -6): 0.6182 | relative binding vs DMSO (KDM1A; [10]): 0.6303 | relative binding vs DMSO (KDM1A; iQ, SW620 lysate, log10 M -7): 0.7048 | relative binding vs DMSO (HMG20A; iL, A549 lysate, log10 M -4): 0 | relative binding vs DMSO (HMG20A; [2]): 0 | relative binding vs DMSO (HMG20A; iL, A549 lysate, log10 M -5): 0 | relative binding vs DMSO (HMG20A; [3]): 0.4211 | relative binding vs DMSO (HMG20A; iL, A549 lysate, log10 M -6): 0.8299 | relative binding vs DMSO (HMG20A; [4]): 0.9993 | relative binding vs DMSO (HMG20A; [5]): 1.185 | relative binding vs DMSO (HMG20A; iL, A549 lysate, log10 M -8): 1.321 | relative binding vs DMSO (HMG20A; [6]): 1.259 | relative binding vs DMSO (HMG20A; [7]): 0.2638 | relative binding vs DMSO (HMG20A; iQ, SW620 lysate, log10 M -4): 0.07541 | relative binding vs DMSO (HMG20A; [8]): 0.5511 | relative binding vs DMSO (HMG20A; iQ, SW620 lysate, log10 M -5): 0.4652 | relative binding vs DMSO (HMG20A; [9]): 0.8795 | relative binding vs DMSO (HMG20A; iQ, SW620 lysate, log10 M -6): 0.793 | relative binding vs DMSO (HMG20A; [10]): 1.133 | relative binding vs DMSO (HMG20A; iQ, SW620 lysate, log10 M -7): 0.8444 | potency of intracellular target engagement and HDAC substrate hyperacetylation ([1]; peer review response): 50 to 300 µM

relative binding vs DMSO (KDM1A; [11]): 0.06889 | relative binding vs DMSO (KDM1A; iL, MV4-11 lysate, log10 M -4): 0.07597 | relative binding vs DMSO (KDM1A; [12]): 0.1867 | relative binding vs DMSO (KDM1A; iL, MV4-11 lysate, log10 M -5): 0.4972 | relative binding vs DMSO (KDM1A; [13]): 0.6394 | relative binding vs DMSO (KDM1A; iL, MV4-11 lysate, log10 M -6): 0.7472 | relative binding vs DMSO (KDM1A; [14]): 0.8335 | relative binding vs DMSO (KDM1A; iL, MV4-11 lysate, log10 M -7): 0.9817 | relative binding vs DMSO (KDM1A; [7]): 0.09916 | relative binding vs DMSO (KDM1A; iQ, SW620 lysate, log10 M -4): 0.186 | relative binding vs DMSO (KDM1A; [8]): 0.3209 | relative binding vs DMSO (KDM1A; iQ, SW620 lysate, log10 M -5): 0.6955 | relative binding vs DMSO (KDM1A; [9]): 0.8479 | relative binding vs DMSO (KDM1A; iQ, SW620 lysate, log10 M -6): 0.9866 | relative binding vs DMSO (KDM1A; [10]): 0.7392 | relative binding vs DMSO (KDM1A; iQ, SW620 lysate, log10 M -7): 0.6643 | relative binding vs DMSO (HMG20A; [11]): 0.1398 | relative binding vs DMSO (HMG20A; iL, MV4-11 lysate, log10 M -4): 0.1277 | relative binding vs DMSO (HMG20A; [12]): 0.1925 | relative binding vs DMSO (HMG20A; iL, MV4-11 lysate, log10 M -5): 0.5136 | relative binding vs DMSO (HMG20A; [13]): 0.6563 | relative binding vs DMSO (HMG20A; iL, MV4-11 lysate, log10 M -6): 0.8243 | relative binding vs DMSO (HMG20A; [14]): 0.9555 | relative binding vs DMSO (HMG20A; iL, MV4-11 lysate, log10 M -7): 1.012 | relative binding vs DMSO (HMG20A; [7]): 0.03313 | relative binding vs DMSO (HMG20A; iQ, SW620 lysate, log10 M -4): 0.1846 | relative binding vs DMSO (HMG20A; [8]): 0.4151 | relative binding vs DMSO (HMG20A; iQ, SW620 lysate, log10 M -5): 0.6118 | relative binding vs DMSO (HMG20A; [9]): 0.969 | relative binding vs DMSO (HMG20A; iQ, SW620 lysate, log10 M -6): 0.8792 | relative binding vs DMSO (HMG20A; [10]): 0.8032 | relative binding vs DMSO (HMG20A; iQ, SW620 lysate, log10 M -7): 1.062 | intracellular binding to HDAC6 ([1]; HeLa cells): dose-dependent intracellular binding | IC50 ([1]; HeLa cells, 2 h, read-out: concentration of half maximal HDAC6 inhibition): 35 µM
Compound: NC(=O)CCCCC1CCSS1 (racemic) [(R/S)-LM, (R/S)-lipoamide]
